# Test: log P by HPLC on a reversed-phase column (C18), EEC Directive 79/831 Annex V.A8
# Type: physicochemical
# Details: HCOOH
# Description: The stated log P values were determined in accordance with EEC Directive 79/831 Annex V.A8 by HPLC (High Performance Liquid Chromatography) using a reversed-phase column (C18).
row,SMILES,log P (HCOOH)
1,Nc1c(-c2cc(Cl)cc(Cl)c2)c(C(F)(F)F)nn1-c1ccc(C(=O)NC2CC2)cn1 [I-A-Q2-106],I-A-Q2-106: log P (HCOOH): 4.30
2,CC(NC(=O)c1ccc(-n2nc(C(F)(F)F)c(-c3cc(F)c(F)c(F)c3)c2N)cc1)c1ccccn1 (centres unmarked) [I-A-Q2-196],I-A-Q2-196: log P (HCOOH): 2.84
3,CC(NC(=O)c1ccc(-n2nc(C(F)(F)F)c(-c3ccccc3Cl)c2N)cc1)c1ccccc1 (centres unmarked) [I-A-Q2-081],I-A-Q2-081: log P (HCOOH): 3.58
4,CCC(CC)NC(=O)c1ccc(-n2nc(C(F)(F)F)c(-c3cc(Cl)cc(Cl)c3)c2N)cc1C [I-A-Q2-225],I-A-Q2-225: log P (HCOOH): 4.57
5,Cc1cc(-n2nc(C(F)(F)F)c(I)c2N)ccc1C(=O)NCc1ccccn1 [XI-A-095],XI-A-095: log P (HCOOH): 2.03
6,Cc1cc(-n2nc(C(F)(F)F)c(-c3cc(Cl)cc(Cl)c3)c2N)ccc1C(=O)NCc1cccc(F)c1 [I-A-Q2-214],I-A-Q2-214: log P (HCOOH): 4.45
7,Cc1cc(-n2nc(C(F)(F)F)c(-c3cc(Cl)cc(Cl)c3)c2N)ccc1C(=O)NCCc1ccccc1 [I-A-Q2-050],I-A-Q2-050: log P (HCOOH): 4.64
8,Cc1cc(-n2nc(C(F)(F)Oc3ccccc3)c(-c3cc(Cl)cc(C(F)(F)F)c3)c2N)ccc1C(=O)NCC(F)(F)C(F)F [I-A-Q2-299],I-A-Q2-299: log P (HCOOH): 4.51
9,CNC(=O)c1ccc(-n2nc(C(F)(F)F)c(-c3cc(Cl)cc(Cl)c3)c2N)cc1 [I-A-Q2-193],I-A-Q2-193: log P (HCOOH): 3.42
10,CCOC(=O)c1ccc(-n2nc(C(F)(F)F)c(Br)c2N)cc1 [XI-A-018],XI-A-018: log P (HCOOH): 3.60
11,Cc1cc(-n2nc(C(F)(F)F)c(-c3ccc(Cl)c(Cl)c3)c2N)ccc1C(=O)NCC(F)(F)C(F)F [I-A-Q2-304],I-A-Q2-304: log P (HCOOH): 4.00
12,Nc1c(-c2ccc(Cl)c(Cl)c2)c(C(F)(F)F)nn1-c1ccc(C(=O)NCC(F)(F)F)cc1 [I-A-Q2-156],I-A-Q2-156: log P (HCOOH): 3.89
13,Nc1c(-c2cccc(Cl)c2)c(C(F)(F)F)nn1-c1ccc(C(=O)NC2CC2)cc1 [I-A-Q2-091],I-A-Q2-091: log P (HCOOH): 3.09
14,Cc1cc(-n2nc(C(F)(F)F)c(-c3cc(Cl)cc(Cl)c3)c2N)ccc1C(=O)NCc1ncc[nH]1 [I-A-Q2-034],I-A-Q2-034: log P (HCOOH): 1.94
15,CC(C)NC(=O)c1ccc(-n2nc(C(F)(F)F)c(-c3ccc(Br)cc3)c2N)cc1 [I-A-Q2-187],I-A-Q2-187: log P (HCOOH): 3.42
16,Cc1cc(-n2nc(C(F)(F)F)c(-c3cc(Cl)cc(Cl)c3)c2N)ccc1C(=O)NC(c1cc(Cl)cc(Cl)c1)C(F)(F)F (centres unmarked) [I-A-Q2-043],I-A-Q2-043: log P (HCOOH): 5.65
17,Cc1cc(-n2nc(C3CCCO3)c(-c3cc(Cl)cc(C(F)(F)F)c3)c2N)ccc1C(=O)NCC(F)(F)C(F)F (centres unmarked) [I-A-Q2-290],I-A-Q2-290: log P (HCOOH): 4.00
18,Cc1cc(-n2nc(C(F)(F)F)c(-c3cc(Cl)cc(Cl)c3)c2N)ccc1C(=O)NCC(F)(F)C(F)(F)C(F)(F)C(F)(F)C(F)(F)C(F)(F)C(F)(F)F [I-A-Q2-267],I-A-Q2-267: log P (HCOOH): 6.14
19,Cc1cc(-n2nc(C(F)(F)F)c(-c3cc(F)cc(F)c3)c2N)ccc1C(=O)NCC(F)(F)C(F)F [I-A-Q2-315],I-A-Q2-315: log P (HCOOH): 3.37
20,Cc1cnc(CNC(=O)c2ccc(-n3nc(C(F)(F)F)c(-c4cc(Cl)cc(Cl)c4)c3N)cc2C)c(C)c1 [I-A-Q2-038],I-A-Q2-038: log P (HCOOH): 3.11
21,Cc1cc(-n2nc(C(F)(F)F)c(-c3ccc(F)c(Cl)c3)c2N)ccc1C(=O)NCC(F)(F)C(F)F [I-A-Q2-309],I-A-Q2-309: log P (HCOOH): 3.65
22,Cc1cc(-n2nc(C(F)(F)F)c(-c3cc(Cl)cc(Cl)c3)c2N)ccc1C(=O)N(C)CC(F)(F)C(F)F [I-A-Q2-033],I-A-Q2-033: log P (HCOOH): 4.51

row,SMILES,log P (HCOOH)
1,Nc1c(-c2cc(Cl)cc(Cl)c2)c(C(F)(F)F)nn1-c1ccc(C(=O)NCCC(F)(F)F)cc1 [I-A-Q2-139],I-A-Q2-139: log P (HCOOH): 4.25
2,Cc1cc(-n2nc(C(F)(F)F)c(-c3cc(Cl)cc(Cl)c3)c2N)ccc1C(=O)N(Cc1ccccn1)C1CC1 [I-A-Q2-111],I-A-Q2-111: log P (HCOOH): 4.17
3,Cc1cc(-n2nc(C(F)(F)F)c(-c3ccccc3C)c2N)ccc1C(=O)NCC(F)(F)C(F)F [I-A-Q2-317],I-A-Q2-317: log P (HCOOH): 3.32
4,CSc1c(-c2cc(Cl)cc(Cl)c2)c(C(F)(F)F)nn1-c1ccc(C(=O)NCc2ccccn2)c(C)c1 [I-A-Q2-028],I-A-Q2-028: log P (HCOOH): 4.35
5,Cc1cc(-n2nc(C(F)(F)F)c(-c3ccc(Cl)c(F)c3)c2N)ccc1C(=O)NCc1ccccn1 [I-A-Q2-353],I-A-Q2-353: log P (HCOOH): 2.84
6,CCCc1nn(-c2ccc(C(=O)NCc3ccccn3)c(C)c2)c(N)c1-c1ccc(Cl)cc1 [I-A-Q2-380],I-A-Q2-380: log P (HCOOH): 2.53
7,CNC(=O)c1ccc(-n2nc(C(F)(F)F)c(-c3ccc(Cl)cc3)c2N)cc1 [I-A-Q2-195],I-A-Q2-195: log P (HCOOH): 2.96
8,Cc1cc(-n2nc(C(F)(F)F)c(-c3ccc(Br)cc3)c2N)ccc1C(=O)NCc1ccccn1 [I-A-Q2-346],I-A-Q2-346: log P (HCOOH): 2.80
9,CC(C)NC(=O)c1ccc(-n2nc(C(F)(F)F)c(-c3cc(Cl)cc(Cl)c3)c2N)cc1 [I-A-Q2-135],I-A-Q2-135: log P (HCOOH): 4.06
10,Cc1cc(-n2nc(C(F)(F)F)c(-c3cc(Cl)cc(Cl)c3)c2N)ccc1C(=O)NCC(F)(F)C(F)(F)F [I-A-Q2-269],I-A-Q2-269: log P (HCOOH): 4.57
11,Cc1cc(-n2nc(C)c(-c3ccc(Cl)c(Cl)c3)c2N)ccc1C(=O)NCC(F)(F)C(F)F [I-A-Q2-323],I-A-Q2-323: log P (HCOOH): 4.32
12,Cc1cc(-n2nc(C(F)(F)F)c(-c3cc(Cl)cc(Cl)c3)c2N)ccc1C(=O)N(C)CC(F)(F)F [I-A-Q2-236],I-A-Q2-236: log P (HCOOH): 4.51
13,Cc1cc(-n2nc(C(F)(F)F)c(-c3cc(Cl)cc(Cl)c3)c2N)ccc1C(=O)NCc1ccc([N+](=O)[O-])cc1 [I-A-Q2-249],I-A-Q2-249: log P (HCOOH): 4.28
14,Cc1cc(-n2nc(C(F)(F)F)c(-c3ccc(Cl)c(F)c3)c2N)ccc1C(=O)NCC(F)(F)C(F)F [I-A-Q2-310],I-A-Q2-310: log P (HCOOH): 3.70
15,Cc1cc(-n2nc(C(F)(F)F)c(-c3cc(Cl)cc(Cl)c3)c2N)ccc1C(=O)NCc1cc(F)ccc1F [I-A-Q2-046],I-A-Q2-046: log P (HCOOH): 4.51
16,CC(NC(=O)c1ccc(-n2nc(C(F)(F)F)c(-c3cccc(F)c3)c2N)cc1)c1ccccn1 (centres unmarked) [I-A-Q2-186],I-A-Q2-186: log P (HCOOH): 2.42
17,CNC(=O)c1ccc(-n2nc(C(F)(F)F)c(-c3cc(Cl)cc(Cl)c3)c2N)cc1C [I-A-Q2-013],I-A-Q2-013: log P (HCOOH): 3.59
18,CSCCNC(=O)c1ccc(-n2nc(C(F)(F)F)c(-c3cc(Cl)cc(Cl)c3)c2N)cc1C [I-A-Q2-205],I-A-Q2-205: log P (HCOOH): 4.17
19,CC(C)(CC(F)(F)F)NC(=O)c1ccc(-n2nc(C(F)(F)F)c(-c3cc(Cl)cc(Cl)c3)c2N)nc1 [I-A-Q2-099],I-A-Q2-099: log P (HCOOH): 5.42
20,"Cc1cc(-n2nc(C(F)(F)F)c(-c3cc(Cl)cc(Cl)c3)c2[S+](C)[O-])ccc1C(=O)NCC(F)(F)C(F)F (single isomer, unassigned) [I-A-Q2-283]",I-A-Q2-283: log P (HCOOH): 4.12
21,Cc1cc(-n2nc(C(F)(F)F)c(-c3ccc(Cl)cc3)c2N)ccc1C(=O)NCc1ccccn1 [I-A-Q2-345],I-A-Q2-345: log P (HCOOH): 2.69

# Same assay, conditions: HCOOH; Table 4, compounds of formula I-A-Q4
row,SMILES,log P (HCOOH)
1,Cc1cc(C)cc(-c2c(C(F)(F)F)nn(-c3ccc(C(=O)O)cc3)c2N)c1 [I-A-Q4-090],I-A-Q4-090: log P (HCOOH): 3.42
2,Nc1c(-c2cccc(Br)c2)c(C(F)(F)F)nn1-c1ccc(Cl)cn1 [I-A-Q4-052],I-A-Q4-052: log P (HCOOH): 5.02
3,Nc1c(-c2ccc(Br)cc2)c(C(F)(F)F)nn1-c1ccc(Cl)cn1 [I-A-Q4-042],I-A-Q4-042: log P (HCOOH): 5.22
4,Nc1c(-c2cc(F)c(F)c(F)c2)c(C(F)(F)F)nn1-c1ccc(C(=O)O)cc1 [I-A-Q4-099],I-A-Q4-099: log P (HCOOH): 3.32
5,COC(=O)c1ccc(-n2nc(C(F)(F)F)c(-c3cc(Cl)cc(Cl)c3)c2N)cc1SC [I-A-Q4-118],I-A-Q4-118: log P (HCOOH): 4.93
6,Cc1ccccc1-c1c(C(F)(F)F)nn(-c2ccc(Cl)cn2)c1N [I-A-Q4-054],I-A-Q4-054: log P (HCOOH): 4.64
7,Nc1c(-c2ccc(F)c(Cl)c2)c(C(F)(F)F)nn1-c1ccc(Cl)cn1 [I-A-Q4-047],I-A-Q4-047: log P (HCOOH): 4.95

# Same assay, conditions: HPLC, reversed-phase C18, mobile phase with formic acid
row,SMILES,log P (HCOOH)
1,Nc1c(-c2cc(Cl)cc(Cl)c2)c(C(F)(F)F)nn1-c1ccc(-n2cncn2)c(C(F)(F)F)c1 [I-A-Q1-068],I-A-Q1-068: log P (HCOOH): 4.32
2,Cc1nn(-c2ccc(-n3cncn3)c(C#N)c2)c(N)c1-c1ccc(F)cc1Cl [I-A-Q1-052],I-A-Q1-052: log P (HCOOH): 2.43
3,N#Cc1cc(-n2nc(C(F)(F)F)c(-c3ccc(F)c(Cl)c3)c2N)ccc1-n1cncn1 [I-A-Q1-036],I-A-Q1-036: log P (HCOOH): 3.24
4,N#Cc1cc(-n2nc(C(F)(F)C(F)(F)F)c(-c3cc(C(F)(F)F)cc(C(F)(F)F)c3)c2N)ccc1-n1cncn1 [I-A-Q1-050],I-A-Q1-050: log P (HCOOH): 4.34
5,Cc1cc(C)cc(-c2c(C(F)(F)F)nn(-c3ccc(-n4cncn4)c(C#N)c3)c2N)c1 [I-A-Q1-038],I-A-Q1-038: log P (HCOOH): 3.33
6,N#Cc1cc(-n2nc(C(F)(F)F)c(-c3cc(Cl)cc(Cl)c3)c2N)ccc1-n1nc[nH]c1=O [I-A-Q1-026],I-A-Q1-026: log P (HCOOH): 3.37
7,CCCc1nn(-c2ccc(-n3cncn3)c(C#N)c2)c(N)c1-c1ccc(Cl)cc1 [I-A-Q1-065],I-A-Q1-065: log P (HCOOH): 3.33
8,N#Cc1cc(-n2nc(C(F)(F)F)c(-c3ccc(I)cc3)c2N)ccc1-n1cncn1 [I-A-Q1-043],I-A-Q1-043: log P (HCOOH): 3.61

# Same assay, conditions: HPLC, reversed-phase C18, mobile phase with formic acid; read-out: log P (HCOOH)
row,SMILES,chromatographic logP
1,"Cc1cc(-n2nc(C(F)(F)F)c(-c3ccc(Cl)c(Cl)c3)c2N)ccc1C(=O)O [I-A-Q4-012, 4-[5-Amino-4-(3,4-dichlorophenyl)-3-(trifluoromethyl)-1H-pyrazol-1-yl]-2-methylbenzoic acid]",3.92
